Data set [1] deals with T1, hDP (Homo sapiens, UniProt Q13258).
T1 sequence (Q13258 1-359): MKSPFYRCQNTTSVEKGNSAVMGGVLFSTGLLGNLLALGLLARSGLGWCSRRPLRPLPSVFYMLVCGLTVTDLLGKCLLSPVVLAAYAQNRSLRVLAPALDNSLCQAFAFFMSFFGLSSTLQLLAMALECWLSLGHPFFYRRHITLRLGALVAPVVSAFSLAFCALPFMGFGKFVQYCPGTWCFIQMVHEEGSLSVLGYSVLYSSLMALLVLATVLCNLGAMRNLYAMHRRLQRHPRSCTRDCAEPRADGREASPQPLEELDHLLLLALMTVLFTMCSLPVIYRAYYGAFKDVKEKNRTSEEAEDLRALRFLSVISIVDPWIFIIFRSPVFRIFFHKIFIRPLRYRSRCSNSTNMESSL
Put plainly: Other receptors functional assay, hDP. In kind it is cell-based. From the text: (§1) U.S. patent application Ser. No. 11/553,143, filed on Oct. 26, 2006, incorporated by reference herein, describes the methods used to obtain the in vitro data in the table below.

Data set [2] deals with T2, EP2 (Homo sapiens, UniProt P43116). Briefly: EP2 binding (Ki).
T2 sequence (P43116 whole entry): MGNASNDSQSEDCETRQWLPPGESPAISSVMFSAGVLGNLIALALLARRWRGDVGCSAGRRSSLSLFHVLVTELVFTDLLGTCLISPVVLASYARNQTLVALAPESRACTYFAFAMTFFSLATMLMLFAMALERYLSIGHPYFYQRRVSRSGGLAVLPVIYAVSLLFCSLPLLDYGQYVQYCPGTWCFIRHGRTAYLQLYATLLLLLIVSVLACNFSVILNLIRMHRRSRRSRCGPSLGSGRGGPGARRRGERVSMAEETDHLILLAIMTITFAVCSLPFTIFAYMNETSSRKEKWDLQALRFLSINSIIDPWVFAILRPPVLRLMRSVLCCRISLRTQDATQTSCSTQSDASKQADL
Description: as §1

Data set [3] has as its target T2, EP2. Briefly: EP2 flipr assay. In kind it is cell-based.
Description: as §1

For data set [4], the target named is T3, hEP3A (Homo sapiens, UniProt P43115).
T3 sequence (P43115 1-390): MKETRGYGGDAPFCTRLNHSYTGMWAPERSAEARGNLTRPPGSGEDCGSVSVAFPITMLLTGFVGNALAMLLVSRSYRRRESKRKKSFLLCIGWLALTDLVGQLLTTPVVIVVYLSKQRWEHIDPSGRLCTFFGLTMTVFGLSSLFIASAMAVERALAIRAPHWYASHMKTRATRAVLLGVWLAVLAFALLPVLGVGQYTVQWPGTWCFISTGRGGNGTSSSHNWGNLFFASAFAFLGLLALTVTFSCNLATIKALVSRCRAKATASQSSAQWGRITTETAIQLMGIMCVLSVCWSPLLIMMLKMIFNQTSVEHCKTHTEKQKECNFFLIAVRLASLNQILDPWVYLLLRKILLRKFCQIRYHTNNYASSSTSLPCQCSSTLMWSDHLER
Put plainly: Other receptors functional assay, hEP3A. It counts as cell-based.
Description: as §1

The target of data set [5] is T2, EP2. Put plainly: EP2 cAMP assay. In kind it is cell-based.
Description: as §1
(In general: Cyclic AMP is a second messenger, typically raised through Gs and lowered through Gi signalling.)

Data set [6] addresses hIP (Homo sapiens, UniProt P43119). Briefly: Other receptors functional assay, hIP. In kind it is cell-based.
Description: as §1

Data set [7] concerns the target T4, hTP (Homo sapiens, UniProt P21731).
T4 sequence (P21731 1-343): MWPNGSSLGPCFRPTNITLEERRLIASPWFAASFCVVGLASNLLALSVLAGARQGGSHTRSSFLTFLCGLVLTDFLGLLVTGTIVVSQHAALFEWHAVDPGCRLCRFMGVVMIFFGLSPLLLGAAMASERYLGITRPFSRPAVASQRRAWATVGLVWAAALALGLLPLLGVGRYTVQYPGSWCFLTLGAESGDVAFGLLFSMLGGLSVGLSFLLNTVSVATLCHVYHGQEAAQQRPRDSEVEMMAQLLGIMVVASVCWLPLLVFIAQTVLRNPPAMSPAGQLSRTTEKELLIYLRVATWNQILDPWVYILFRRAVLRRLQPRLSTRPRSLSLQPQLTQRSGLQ
Briefly: Other receptors functional assay, hTP. In kind it is cell-based.
Description: as §1

In data set [8] the target is T5, EP4 (Homo sapiens, UniProt P35408). Put plainly: EP4 flipr assay. It counts as cell-based. To be noted: read-out: EP4 data flip EC50.
T5 sequence (P35408 whole entry): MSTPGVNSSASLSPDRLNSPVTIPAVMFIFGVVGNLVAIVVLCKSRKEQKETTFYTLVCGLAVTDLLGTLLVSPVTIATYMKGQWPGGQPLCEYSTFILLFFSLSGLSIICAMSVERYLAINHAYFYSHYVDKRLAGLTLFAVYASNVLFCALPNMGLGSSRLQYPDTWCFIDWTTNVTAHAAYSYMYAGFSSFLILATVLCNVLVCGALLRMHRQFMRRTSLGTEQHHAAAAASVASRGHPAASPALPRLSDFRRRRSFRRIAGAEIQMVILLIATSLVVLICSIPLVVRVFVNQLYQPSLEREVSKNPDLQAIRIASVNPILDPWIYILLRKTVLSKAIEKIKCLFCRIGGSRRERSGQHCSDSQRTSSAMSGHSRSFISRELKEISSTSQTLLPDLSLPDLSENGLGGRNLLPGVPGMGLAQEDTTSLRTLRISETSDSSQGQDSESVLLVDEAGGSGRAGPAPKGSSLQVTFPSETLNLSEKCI
Description: as §1

Data set [9] addresses T5, EP4. Put plainly: EP4 binding (Ki).
Description: as §1

Data set [10] concerns normotensive dogs. Briefly: Ocular surface hyperemia in normotensive dogs. It counts as in vivo, dog. To be noted: once daily for 5 days. As to the method: (§2) U.S. Pat. No. 7,091,231 describes the methods used to carry out the tests reported below.
(§3) 5-[(R)-1-((S)-3-Hydroxyoctyl)-5-oxopyrrolidin-2-ylmethoxymethyl]-thiophene-2-carboxylic isopropyl ester was tested in normotensive dogs at 2 concentrations, dosing once daily for 5 days. At 0.1%, the maximum intraocular pressure (TOP) decrease from baseline was 8 mmHg (47%) at 78 h; the maximum ocular surface hyperemia (OSH) score was 2.25 at 50 h. At 0.01%, the maximum TOP decrease from baseline was 6.1 mmHg (35%) at 78 h; the maximum OSH score was 1.7 at 30 h. This compound was also tested in laser-induced hypertensive monkeys, using one single day dose. At 0.1%, the maximum TOP decrease from baseline was 17 mmHg (48%) at 6 h.

Data set [11] relates to laser-induced hypertensive monkeys. Put plainly: Intraocular pressure in laser-induced hypertensive monkeys. It counts as in vivo, monkey. The settings on record: 0.1%, one single day dose, at 6 h. As to the method:
as §2, §3

The test system of data set [12] is normotensive dogs. Put plainly: Intraocular pressure in normotensive dogs. It counts as in vivo, dog. To be noted: once daily for 5 days, at 78 h. The protocol:
as §2, §3

Bounds are passed on as bounds.

hIP, sequence (P43119 whole entry): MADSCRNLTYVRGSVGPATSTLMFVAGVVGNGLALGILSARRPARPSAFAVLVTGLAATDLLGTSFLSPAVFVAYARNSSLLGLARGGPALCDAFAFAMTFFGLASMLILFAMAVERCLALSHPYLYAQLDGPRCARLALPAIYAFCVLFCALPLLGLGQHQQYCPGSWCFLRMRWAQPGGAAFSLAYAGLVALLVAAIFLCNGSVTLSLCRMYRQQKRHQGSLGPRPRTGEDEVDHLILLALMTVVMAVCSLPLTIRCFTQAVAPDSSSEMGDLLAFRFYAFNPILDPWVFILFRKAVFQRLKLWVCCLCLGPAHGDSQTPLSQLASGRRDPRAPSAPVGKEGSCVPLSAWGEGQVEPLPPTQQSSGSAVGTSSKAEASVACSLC

What is called EC50 is the concentration that produces a half-maximal response. One may read the Ki as a dissociation constant, usually derived from enzyme kinetics or from competition with a known ligand. The low end stands for a stronger hold on the target, the high end for a looser hold on the target. In the case of `CCCC1(C(O)CCCN2C(=O)CC[C@@H]2COCc2ccc(C(=O)O)s2)CCC1` (mixture of isomers) [Example 4, 5-{(R)-1-[4-Hydroxy-4-(1-propylcyclobutyl)-butyl]-5-oxopyrrolidin-2-ylmethoxymethyl}-thiophene-2-carboxylic acid], the EC50 in data set [1] is 213 nM; in [3] it was over 10000 nM; in [4], over 10000 nM; in data set [5], 20 nM; in [6] it was over 10000 nM; in [7] it was over 10000 nM. In data set [2], this compound showed an inhibitory constant (Ki) of 1200 nM.

Consider `CCCCC[C@H](O)CCN1C(=O)CC[C@@H]1COCc1ccc(C(=O)O)s1` [Example 1, 5-[(R)-1-((S)-3-Hydroxyoctyl)-5-oxopyrrolidin-2-ylmethoxymethyl]-thiophene-2-carboxylic acid], for which the EC50 in [1] was 6.8 nM; in data set [8], 7850 nM; in [3] it was 1570 nM; in data set [4], 2220 nM; in [5] it was 19 nM; in data set [7], 4890 nM. Moreover, the inhibition constant Ki turned out to be 2880 nM in data set [2] and 8720 nM in data set [9].

`CCCCC[C@H](O)CCN1C(=O)CC[C@@H]1COCc1ccc(C(=O)NS(C)(=O)=O)s1` [Example 2, N-{5-[(R)-1-((S)-3-Hydroxy-octyl)-5-oxopyrrolidin-2-ylmethoxymethyl]-thiophene-2-carbonyl}-methanesulfonamide]: the EC50 in data set [1] was 194 nM; in data set [4] it was 2030 nM; in data set [6], over 10000 nM; in data set [7], over 10000 nM.

Consider `CCCCC[C@H](O)CCN1C(=O)CC[C@@H]1COCc1ccc(C(=O)NCC)s1` [Example 3, 5-[(R)-1-((S)-3-Hydroxy-octyl)-5-oxopyrrolidin-2-ylmethoxymethyl]-thiophene-2-carboxylic acid ethylamide], for which the EC50 in data set [1], in data set [6] and in data set [7] was over 10000 nM each time.

As to `CCCCC[C@H](O)CCN1C(=O)CC[C@@H]1COCc1ccc(C(=O)OC(C)C)s1` [Example 5, 5-[(R)-1-((S)-3-Hydroxyoctyl)-5-oxopyrrolidin-2-ylmethoxymethyl]-thiophene-2-carboxylic isopropyl ester], the “maximum ocular surface hyperemia (OSH) score” value is reported as 1.7 in data set [10] (0.01%, at 30 h) and 2.25 in [10] (0.1%, at 50 h). Further, the “maximum intraocular pressure decrease from baseline” value in [11] is on record as 17 mmHg; in data set [12] (0.01%), 6.1 mmHg; in [12] (0.1%), 8 mmHg. The “maximum intraocular pressure decrease from baseline (percent)” value in [11] amounted to 48%; in [12] (0.01%), 35%; in [12] (0.1%), 47%.
